Laboratory results from article PMC2701622 (Journal of immunology (Baltimore, Md. : 1950), 2009).
No end group written: not given here.

Biological target: HLA-B*2705 (Homo sapiens, UniProt P01889, D138H/D201E/E176V/E204Q/G107R/H137Y/K202T/N104T/N87E/Q56L/Q94K/R106L/R155S/R180L/S101D/S121N/S48T/Y140D/Y33H/Y91C)
Assay: biochemical
Type: binding

| Molecule | IC50 |
| --- | --- |
| RRQDILDLWI [reference compound] | 99 nM |
| RRPPLLPLLL | 100 nM |
| LRQGYRPVF [Env717–725LF9] | 52 nM |
| RRLTARGLL [Nef246–254RL9] | 9.9 nM |
| SRLEILNVL | 80 nM |
| TRYPTILQL | 97 nM |
| KRLRLIHLL [Rev12–20KL9] | 1.1 nM |
| RRSRPSGDL [Nef8–16RL9] | 351 nM |
| RRDNRRGL [Vif172–179RL8] | 175 nM |
| CC(C)C[C@H](NC(=O)[C@H](CCC(=O)O)NC(=O)[C@@H](NC(=O)[C@H](CO)NC(=O)[C@H](CCCCN)NC(=O)[C@H](CCC(N)=O)NC(=O)[C@H](Cc1ccc(O)cc1)NC(=O)[C@H](CCCNC(=N)N)NC(=O)[C@@H](N)CCCNC(=N)N)[C@@H](C)O)C(=O)O [reference compound] | 6.2 nM |
| EREQTLNQL [reference compound] | 2690 nM |
| NRAKQVIKL [reference compound] | 324 nM |
| DRLALLANL [reference compound] | 181 nM |
| ARLFGIRAK [reference compound] | 133 nM |
| RRHRILDIYL [Nef137–146RL10] | 1.8 nM |
| RRYNIIPVL | 7.9 nM |
| RRSPFLQVF | 14 nM |
| SRTPYHVNL | 22 nM |
| ARAALQELL | 137 nM |

| Molecule | IC50 |
| --- | --- |
| SRHHAFCFR [reference compound] | 42 nM |
| SRYDPSISF | 254 nM |
| RRAIRGEQL [Vif123–131RL9] | 28 nM |
| KRQQELLRL [Env573–581KL9] | 69 nM |
| SRLWPKIQGL | 17 nM |
| YRRWIQLGL [Gag263–271YL9] | 2.7 nM |
| KRLAETLAL [KRLAETLAL, reference compound] | 165 nM |
| RRSKEITVR [reference compound] | 5.5 nM |
| NRFSVAYML [reference compound] | 9.8 nM |
| RRRWQQLL [Rev44–51RL8] | 12 nM |
| MRDHTITLL [reference compound] | 52 nM |
| SRQFGFIVL | 128 nM |
| CC(C)C[C@H](NC(=O)[C@H](CCCNC(=N)N)NC(=O)[C@H](CC(C)C)NC(=O)[C@H](C)NC(=O)[C@H](CCC(=O)O)NC(=O)[C@@H]1CCCN1C(=O)[C@H](Cc1ccccc1)NC(=O)[C@H](CCCNC(=N)N)NC(=O)[C@@H](N)CO)C(=O)O [reference compound] | 12 nM |
| IRILQRALF [Vpr62–70IF9] | 14 nM |
| ARKLLLDNL [reference compound] | 74 nM |
| RRISGVDRY [reference compound] | 21 nM |
| RRIRQGLEL [Env868–876RL9] | 13 nM |
| KRGVFVLGF [Env524–532KF9] | 13 nM |
